Laboratory results: patent US4716238A, “Chromene derivatives useful as insecticides” (Alkaloida Vegyeszeti Gyar, priority 1983, dated 1987)
Like-named read-outs stand apart in the source and are kept apart here.

Tests used:
insects = details: prior art; cited from earlier work
cabbage butterfly = assay: Cabbage butterfly test (sprayed cabbage seedlings, II. stage larvae); type: in vivo; details: Pieris brassicae, 50 EC composition; for mortality at 0.01 % / survival at 0.01 %: concentration 0.01%; for mortality at 0.01 % / mortality at 0.1 %: read-out: Killing rate of larvae; for mortality at 0.1 % / survival at 0.1 %: concentration 0.1%
Method: cabbage butterfly (Pieris brassicae)
From the 50 EC of the test compound a dilution series is prepared with water and the host seedlings (cabbage) are sprayed with this composition until the spray runs down. The spray is allowed to dry whereupon 20 young larvae of the II. stage are placed on each treated plant and the seedlings are kept under so-called "long-day" illumination (18 hours of illumination and 6 hours of darkness). The nibbled plants are replaced by similarly sprayed plants if necessary. The killing rate of the insects, the growth rate of the larvae and the morphological deformations of the surviving nymphs and adults are registered.
In the 50 EC compositions P1 and test compound 1 are used in a concentration of 0.01%, and the other active ingredients in a concentration of 0.1%.

cotton bug = assay: Cotton bug test (topical application on larvae of II. stage); type: in vivo, Dysdercus fasciatus
Method: cotton bug (Dysdercus fasciatus) A dilution series is prepared from the test compound with acetone, and 0.2 μl of each dilution is topically applied onto the back part of larvae of the II. stage of growth with the aid of a Hamiltion syringe. The active ingredient is absorbed through the cuticula. The animals are kept in a large glass and fed with cotton grains and water. After adult shedding the surviving insects are observed for eventual adultoid symptoms, the egg-reproduction and the development of the ovules is evaluated too. (Remark: in the cotton bug test 50 insects are used). In each Table the control value are disclosed too.

domestic fly = assay: Domestic fly test (larvae on treated nutrient medium); type: in vivo; details: Musca domestica
Method: domestic fly (Musca domestica)
The fly larvae are grown on a nutrient medium of the following composition: 2 ml of milk; 2 ml of water; 2 g of wheat bran; 0.1 ml of saturated alcoholic nipagin solution.
The nutrient medium is filled into cylindrical glass vials (30×100 mm) and 25 fly larvae are raised in each vial. The test compound is dissolved in milk; the end concentration (related to milk) amounts to 0.1% which corresponds to 0.05% (related to the total nutrient medium). The solution of the active ingredient is admixed with the nutrient medium whereupon […] of domestic fly larvae of the I. stage are placed into each vial and the vials are closed with a hard cotton-wool stopper. The nymphs emerging from the larvae are collected in each vial, counted and kept in a petri dish (diameter 25 mm) until flies hatch from the nymphs. The hatched flies are counted.

[1] = test system: Caenorhabditis elegans adult nematodes; assay: Nematocidal effect on Caenorhabditis elegans adult nematodes; type: in vivo; details: for Size of descendant population: control normal; for mortality at 200 µg/mL / mortality at 400 µg/mL: Caenorhabditis elegans, read-out: Lethality
Method: Caenorhabditis elegans 0.5 ml of the acetonous solution of the test compound is applied onto a NGM agar plate free from bacteria in a Petri dish. After the acetone was dried 25-30 young adults are placed on the plate. After 24 hours the surviving and killed […] are counted.

mustard beetle = assay: Mustard beetle test; type: in vivo; details: Phaedon cochleariae; concentration 1%; control 100%; read-out: Survival of adults
Method: Two weeks old mustard seedlings are sprayed with a solution of 0.1 g of the test compound, 0.5 ml of dimethyl sulfoxide, and 10 μl of 50 EC composition in 10 ml of water. After the spray is dried, 20 mustard larvae of the II. stage are placed on each plant. The sprayed plants are changed every second day. The evaluation is based on the number of imagos hatching from the nymphs.

Structure (SMILES) | mortality at 0.1 % (cabbage butterfly) | survival at 0.1 % (cabbage butterfly; read-out: Survival, adult) | survival at 0.1 % (cabbage butterfly; read-out: Survival, nymph) | survival at 0.1 % (domestic fly; read-out: Survival, adult) | survival at 0.1 % (domestic fly; read-out: Survival, nymph) | Size of descendant population ([1]; 200 μg/ml) | Size of descendant population ([1]; 400 μg/ml) | also measured
COc1cc2c(cc1OC(C)C)OC(C)(C)C=C2 [6-methoxy-7-isopropoxy-2,2-dimethyl-chromene] | – | – | – | – | – | – | – | activity relative to natural P1 and P2 (insects): considerably more active than natural P1 and P2
CCCOc1ccc2c(c1)OC(C)(C)C=C2 [Compound 1] | – | – | – | – | – | – | – | mortality at 0.01 % (cabbage butterfly): 52%; survival at 0.01 % (cabbage butterfly; read-out: Survival, adult): 39%; survival at 0.01 % (cabbage butterfly; read-out: Survival, nymph): 48%
CCC(C)Oc1cc2c(cc1OC)C=CC(C)(C)O2 (centres unmarked) [Compound 66] | – | – | – | – | – | – | – | AJH effect (cotton bug): 0.1 μg/insect; LD50 (cotton bug): 0.4 μg/insect
CCOc1ccc2c(c1OC)OC(C)(C)C=C2 [Compound 87] | 76% | 24% | 24% | 4.2% | 5.4% | reduced | no descendants | mortality at 200 µg/mL ([1]; 24 h): 40%; mortality at 400 µg/mL ([1]; 24 h): 100%
COc1cc(OC(C)C)cc2c1C=CC(C)(C)O2 [Compound 108] | 87% | 9% | 13% | – | – | – | – | –
CCC(C)Oc1cc(OC)c2c(c1)OC(C)(C)C=C2 (centres unmarked) [Compound 109] | 100% | – | – | – | – | – | – | –
CC(C)=CCOc1cc2c(cc1OCC=C(C)C)OC(C)(C)C=C2 [Compound 60] | – | – | – | – | – | – | – | LD50 (cotton bug): 0.6 μg/insect
C#CCOc1cc(C)c2c(c1)OC(C)(C)C=C2 [Compound 30] | 83% | 17% | 17% | 10.6% | 50.9% | some descendants | no descendants | Remark ([1]; 200 μg/ml): paralysis; Remark ([1]; 400 μg/ml): paralysis; mortality at 200 µg/mL ([1]; 24 h): 20%; mortality at 400 µg/mL ([1]; 24 h): 30%
COc1c(OCC(C)C)ccc2c1OC(C)(C)C=C2 [Compound 91, 7-isobutoxy-8-methoxy-2,2-dimethyl-2H-chromene] | 93% | 7% | 7% | – | – | – | – | –
CC(C)COc1ccc2c(c1)OC(C)(C)C=C2 [Compound 3] | – | – | – | 28.2% | 100% | – | – | –
Cc1cc(OC(C)C)cc2c1C=CC(C)(C)O2 [Compound 19] | – | – | – | 27.6% | 50.9% | – | – | –
CCOc1cc2c(cc1OC)C=CC(C)(C)O2 [Compound P3, 6-methoxy-7-ethoxy-2,2-dimethyl-2H-chromene, reference compound] | – | – | – | – | – | some descendants | no descendants | mortality at 200 µg/mL ([1]; 24 h): 70%; mortality at 400 µg/mL ([1]; 24 h): 90%; activity relative to natural P1 and P2 (insects): considerably more active than natural P1 and P2
COc1ccc2c(c1)OC(C)(C)C=C2 [Compound P1, reference compound] | – | – | – | – | – | reduced | no descendants | mortality at 0.01 % (cabbage butterfly): 41%; survival at 0.01 % (cabbage butterfly; read-out: Survival, adult): 50%; survival at 0.01 % (cabbage butterfly; read-out: Survival, nymph): 59%; survival at 0.1 % (domestic fly; 0.1% related to milk (0.05% of total nutrient medium), control 100%, read-out: Survival, adult): 33.3%; survival at 0.1 % (domestic fly; 0.1% related to milk (0.05% of total nutrient medium), control 100%, read-out: Survival, nymph): 100%; mortality at 200 µg/mL ([1]; 200 μg/ml, 24 hours): 44%; mortality at 400 µg/mL ([1]; 400 μg/ml, 24 hours): 98%
Cc1cc(OC2CCCC2)cc2c1C=CC(C)(C)O2 [Compound 22] | 100% | – | – | 31.8% | 52.7% | – | – | –
CCCOc1cc(OC)c2c(c1)OC(C)(C)C=C2 [Compound 107] | 88% | 12% | 12% | 6.4% | 9.1% | – | – | –
Cc1cc(OCC(C)C)cc2c1C=CC(C)(C)O2 [Compound 21] | 100% | – | – | 25.5% | 45.7% | – | – | survival at 1 % (mustard beetle): 27%
CCC(C)Oc1ccc2c(c1OC)OC(C)(C)C=C2 (centres unmarked) [Compound 89, 7-sec.butoxy-8-methoxy-2,2-dimethyl-2H-chromene] | 100% | – | – | – | – | reduced | reduced | mortality at 200 µg/mL ([1]; 24 h): 25%; mortality at 400 µg/mL ([1]; 24 h): 85%
C=CCOc1cc2c(cc1OCC=C)OC(C)(C)C=C2 [Compound 58] | – | – | – | – | – | some descendants | no descendants | mortality at 200 µg/mL ([1]; 24 h): 40%; mortality at 400 µg/mL ([1]; 24 h): 90%
COc1cc2c(cc1OC)OC(C)(C)C=C2 [Compound P2, reference compound] | – | – | – | – | – | no descendants | no descendants | AJH effect (cotton bug): 1 μg/insect; LD50 (cotton bug): 0.6 μg/insect; Sterilizing effect (cotton bug): 10 μg/insect; mortality at 200 µg/mL ([1]; 200 μg/ml, 24 hours): 100%; mortality at 400 µg/mL ([1]; 400 μg/ml, 24 hours): 100%
CCOc1cc(C)c2c(c1)OC(C)(C)C=C2 [Compound 17] | 81% | 19% | 19% | 14.8% | 40% | – | – | –
COc1cc(OCC(C)C)cc2c1C=CC(C)(C)O2 [Compound 110, 5-methoxy-7-isobutoxy-2,2-dimethyl-2H-chromene] | 100% | – | – | 0% | 0% | – | – | –
COc1c(OC(C)C)ccc2c1OC(C)(C)C=C2 [Compound 90, 7-isopropoxy-8-methoxy-2,2-dimethyl-2H-chromene] | 64% | 32% | 36% | 0% | 12% | reduced | reduced | mortality at 200 µg/mL ([1]; 24 h): 60%; mortality at 400 µg/mL ([1]; 24 h): 73%
CCCOc1ccc2c(c1OC)OC(C)(C)C=C2 [Compound 88, 7-n-propoxy-8-methoxy-2,2-dimethyl-2H-chromene] | 100% | – | – | 0% | 12.7% | – | – | survival at 1 % (mustard beetle): 45%
CCC(C)Oc1cc(C)c2c(c1)OC(C)(C)C=C2 (centres unmarked) [Compound 20] | 11% | 14% | 19% | 12.5% | 25.4% | – | – | –
COc1cc2c(cc1OCC(C)C)OC(C)(C)C=C2 [Compound 67] | – | – | – | – | – | – | – | LD50 (cotton bug): 0.4 μg/insect
